Here are results for one compound from patent US8217164B2, “Use of a lactose-derived C-glycoside compound as an agent for activating and regulating cutaneous immunity” (L'Oreal, priority 2006, dated 2012).

The test deals with human peripheral blood cells (lymphocyte proliferation). Briefly: Immunostimulant activity: lymphocyte proliferation by BrdU labelling. Type of test: cell-based. The note with it: 10 to 0.05 mM, 3 days of culture. As for the experimental part:
The immunostimulant activity is tested in the following way: human peripheral blood cells are cultured in the presence of an RPMI-type culture medium supplemented with L-glutamine (2 mM), penicillin/streptomycin (50 μg/50 IU/ml) and foetal calf serum (10%). The C-glycoside derivatives are added at various concentrations (10 to 0.05 mM), as is phytohaemagglutinin (PHA at 5*G/ml), a positive control for lymphocyte proliferation.

With `CC(=O)C[C@@H]1O[C@H](CO)[C@@H](OC2O[C@H](CO)[C@H](O)[C@H](O)[C@H]2O)[C@H](O)[C@H]1O` (stereo partly shown) [Compound 2], the “human lymphocyte proliferation (immunostimulant activity)” value is reported as “tendency to stimulate human lymphocyte proliferation at all the concentrations tested”.
